Reference: the Bradley open melting point set (2014)
Values joined by “and” are separate entries in the source; they are usually repeats but may differ in a detail not shown here. Equal values may be shown once.

Structure (SMILES) | melting point
Clc1ccc(C(Cn2ccnc2)OCc2csc3c(Cl)cccc23)c(Cl)c1 (stereo not drawn) [sertaconazole] | 146 °C
COc1cc(/C=C/C(=O)O)cc(OC)c1O [sinapic acid] | 195 °C
NCCCCNCCCN [spermidine] | 24 °C
O=C1C[C@@H]2OCC=C3CN4CC[C@]56c7ccccc7N1[C@H]5[C@H]2[C@H]3C[C@H]46 [strychnine] | 280 °C
OCC(O)c1ccccc1 (stereo not drawn) [styrene glycol] | 68 °C
C=Cc1ccccc1 [styrene] | -31 °C
O=C(O)CCCCCCC(=O)O [suberic_acid] | 144 °C
O=C1CCC(=O)O1 [succinic anhydride] | 120 °C
OC[C@H]1O[C@@](CO)(O[C@H]2O[C@H](CO)[C@@H](O)[C@H](O)[C@H]2O)[C@@H](O)[C@@H]1O [sucrose] | 188 °C
CC(=O)NS(=O)(=O)c1ccc(N)cc1 [sulfacetamide] | 183 °C
Nc1ccc(S(=O)(=O)Nc2ncccn2)cc1 [sulfadiazine] | 252 °C and 256 °C and 254 °C
COc1cc(NS(=O)(=O)c2ccc(N)cc2)nc(OC)n1 [sulfadimethoxine] | 204 °C
Cc1ccnc(NS(=O)(=O)c2ccc(N)cc2)n1 [sulfamerazine] | 236 °C
Cc1cc(C)nc(NS(=O)(=O)c2ccc(N)cc2)n1 [sulfamethazine] | 176 °C
Cc1noc(NS(=O)(=O)c2ccc(N)cc2)c1C [sulfisoxazole] | 191 °C and 194 °C
CCN1CCCC1CNC(=O)c1cc(S(N)(=O)=O)ccc1OC (stereo not drawn) [sulpiride] | 178 °C
COc1cc(C(=O)O)cc(OC)c1O [syringic acid] | 207 °C
CCC(=C(c1ccccc1)c1ccc(OCCN(C)C)cc1)c1ccccc1 [tamoxifen] | 96 °C
O=C(O)C(O)C(O)C(=O)O (stereo not drawn) [tartaric acid] | 147 °C
CN1C(C(=O)Nc2ccccn2)=C(O)c2sccc2S1(=O)=O [tenoxicam] | 211 °C
CCNc1nc(NC(C)(C)C)nc(SC)n1 [terbutryn] | 105 °C
CCNc1nc(NC(C)(C)C)nc(SC)n1 [terbutryne] | 104 °C
O=Cc1ccc(C=O)cc1 [terephthalaldehyde] | 116 °C

Structure (SMILES) | melting point
O=Cc1ccc(C=O)cc1 [terephthaldicarboxaldehyde] | 116 °C
CC(C)(C)OC(=O)C(C(=O)Cc1ccccc1)c1ccccc1 (stereo not drawn) [tert-butyl 3-oxo-2,4-diphenylbutanoate] | 83 °C
CCOC(C)(C)C [tert-butyl ethyl ether] | -94 °C
COC(C)(C)C [tert-butyl methyl ether] | -109 °C
CC12CCC(=O)C=C1CCC1C2CCC2(C)C(O)CCC12 (stereo not drawn) [testosterone] | 153 °C
CCCCCCCCCCCCCC [tetradecane] | 6 °C
CCCCCCCCCCCCCC(=O)O [tetradecanoic acid] | 55 °C
CCN(CC)C(=S)SSC(=S)N(CC)CC [tetraethylthiuram disulfide] | 71 °C
O=S(=O)(Cl)c1cccs1 [thiophene-2-sulfonyl chloride] | 30 °C
Sc1ccccc1 [thiophenol] | -15 °C
Cl/C=C/Cl [trans-1,2-dichloroethylene] | -50 °C
C/C=C/c1ccccc1 [trans-1-phenyl-1-propene] | -29 °C
Cc1nnc2n1-c1ccc(Cl)cc1C(c1ccccc1Cl)=NC2 [triazolam] | 234 °C
O=C(O)C(Cl)(Cl)Cl [trichloroacetic acid] | 57.5 °C
ClC=C(Cl)Cl [trichloroethylene] | -85 °C
CCP(=O)(CC)CC [triethylphosphine oxide] | 49 °C
CP(C)(C)=S [trimethylphosphine sulfide] | 156 °C
c1ccc(OP(Oc2ccccc2)Oc2ccccc2)cc1 [triphenyl phosphite] | 23 °C
S=C=NC(c1ccccc1)(c1ccccc1)c1ccccc1 [triphenylmethyl isothiocyanate] | 135 °C
NCCc1ccc(O)cc1 [tyramine] | 164 °C
CCCCC(=O)c1ccccc1 [valerophenone] | -9 °C
COC(CN1CCN(CC(O)C(OC)c2ccccc2)CC1)c1ccccc1 (stereo not drawn) [zipeprol] | 83 °C

Next, values leading:

melting point | Structure (SMILES)
-96 °C | C1CCSC1 [tetrahydrothiophene]
36 °C | CC(C)OP(=O)(CCP(=O)(OC(C)C)OC(C)C)OC(C)C [tetraisopropyl 1,2-ethylenediphosphonate]
88 °C | CCCCCCCCCCCCCCCCCCCCCCCCCCCCCCCCCCCCCCCCCCCC [tetratetracontane]
348 °C | Cn1cnc2c1c(=O)[nH]c(=O)n2C [theobromine]
270 °C | Cn1c(=O)c2[nH]cnc2n(C)c1=O [theophylline]
-17 °C | CC(=O)S [thioacetic acid]
17 °C | O=C(S)c1ccccc1 [thiobenzoic acid]
316 °C | Cc1c[nH]c(=O)[nH]c1=O [thymine]
13 °C | Cc1c(N=C=O)cccc1N=C=O [toluene-2,6-diisocyanate]
31 °C | C/C=C/C=C/CO [trans,trans-2,4-hexadien-1-ol]
234 °C | O=C(O)/C=C/c1ccc(Cl)cc1Cl [trans-2,4-dichlorocinnamic acid]
217 °C | O=C(O)/C=C/c1ccc(F)cc1F [trans-2,4-difluorocinnamic acid]
117 °C | C[C@@H]1CN[C@@H](C)CN1 [trans-2,5-dimethylpiperazine]
-99 °C | C/C=C/CCC [trans-2-hexene]
-113 °C | CC/C=C/CC [trans-3-hexene]
87 °C | COc1ccc(C(=O)C=C(C)c2ccc(OC)cc2)cc1 [trans-4,4'-Dimethoxy-beta-methylchalcone]
232 °C | O=C(O)/C=C/c1ccc(C(F)(F)F)cc1 [trans-4-(trifluoromethyl)cinnamic acid]
22 °C | C/C=C/c1ccc(OC)cc1 [trans-anethole] [listing 1 of 2 here]
23 °C | C/C=C/c1ccc(OC)cc1 [trans-anethole] [listing 2 of 2 here]
56 °C | O=C(/C=C/c1ccccc1)c1ccccc1 [trans-chalcone]
133 °C | O=C(O)/C=C/c1ccccc1 [trans-cinnamic_acid]
72 °C | C/C=C/C(=O)O [trans-crotonic acid]
124 °C | C(=C\c1ccccc1)/c1ccccc1 [trans-stilbene]
267 °C | c1ccc2c(P(c3cccc4ccccc34)c3cccc4ccccc34)cccc2c1 [tri(1-naphthyl)phosphine]

melting point | Structure (SMILES)
67 °C | CCCCP(=O)(CCCC)CCCC [tri-n-butylphosphine oxide]
15 °C | CCCCCCCCCCCCN(CCCCCCCCCCCC)CCCCCCCCCCCC [tri-n-dodecylamine]
55 °C | CCCCCCCCP(=O)(CCCCCCCC)CCCCCCCC [tri-n-octylphosphine oxide]
3 °C | CC(=O)OCC(COC(C)=O)OC(C)=O [triacetin]
293 °C | O=C\1\C=C5/[C@@](/C=C/1)(C)[C@]2(F)[C@H]([C@H]3[C@](C[C@@H]2O)([C@@]4(OC(O[C@@H]4C3)(C)C)C(=O)CO)C)CC5 [triamcinolone acetonide]
93 °C | c1ccc(CN(Cc2ccccc2)Cc2ccccc2)cc1 [tribenzylamine]
160 °C | O=C(O)CC(CC(=O)O)C(=O)O [tricarballylic acid]
-63 °C | ClC(Cl)Cl [trichloromethane]
-5 °C | CCCCCCCCCCCCC [tridecane]
-85 °C | CCOB(OCC)OCC [triethyl borate]
-115 °C | CCN(CC)CC [triethylamine]
-53 °C | COC(OC)OC [trimethyl orthoformate]
199 °C | c1ccc2c(c1)c1ccccc1c1ccccc21 [triphenylene]
94 °C | c1ccc(C(c2ccccc2)c2ccccc2)cc1 [triphenylmethane]
62 °C | Fc1cccc(P(c2cccc(F)c2)c2cccc(F)c2)c1 [tris(3-fluorophenyl)phosphine]
128 °C | Fc1c(F)c(F)c(B(c2c(F)c(F)c(F)c(F)c2F)c2c(F)c(F)c(F)c(F)c2F)c(F)c1F [tris(pentafluorophenyl)borane]
96 °C | CCN(Cc1ccncc1)C(=O)C(CO)c1ccccc1 (stereo not drawn) [tropicamide]
156 °C | COc1ccccc1N1CCN(CCCNc2cc(=O)n(C)c(=O)n2C)CC1 [urapidil]
-92 °C | CCCCC=O [valeraldehyde]
-34 °C | CCCCC(=O)O [valeric acid]
211 °C | COc1cc(C(=O)NN)ccc1O [vanillic acid hydrazide]
100 °C (2×) and 102 °C | c1ccc2c(c1)Cc1ccccc1O2 [xanthene]
94 °C | OC[C@@H](O)[C@H](O)[C@@H](O)CO [xylitol]
106 °C | Cc1cn(C2CC(N=[N+]=[N-])C(CO)O2)c(=O)[nH]c1=O (stereo not drawn) [zidovudine]
